{"source": "patent US9393317B2", "about": "“Peptide-conjugated oligonucleotide therapeutic and method of making and using same” (Sloan-Kettering Institute for Cancer Research, priority 2008, dated 2016)", "key": {"[1]": {"system": "endothelial cells (HUVECs and the murine endothelioma cell line EOMA)", "experiment": "Uptake of fluorescence labeled Id1-PCAO by endothelial cells, confocal fluorescence microscopy", "type": "cell-based", "settings": "200 nM, no lipid or other carrier", "procedure": "In order to determine if the Id1 PCAO retained the homing specificity of the F3 peptide and could be taken up by cells in the absence of lipid or other specialized carrier, fluorescence labeled Id1-PCAOs were supplied to different cell lines at a concentration of 200 nM. […] Fluorescein and tetra methyl-rhodamine red labeled PCAOs were also tested to control for the effects of the fluorophore and similar results were obtained. To rule out effects from the fixation process we performed epifluorescence live imaging on viable HUVECs and HeLa cells and similar results were observed.\nHUVEC were seeded 24 h prior to transfection at 10^5 cells/well in six-well MWDs in standard growth media (EGM-2) without antibiotics. At the day of transfection the AO-conjugates and control oligos were diluted in EGM-2 to the indicated concentration. Media was replaced with the supplemented EGM-2. The procedure was repeated every 24 h for two more days, samples were drawn at the indicated time points and analyzed via western blot. Other cell lines were treated similarly, with the exception that Id1-PCAO was added to standard growth media, DME or RPMI 1640 in accordance to cell type. Uptake studies in different cell lines with fluorescence labeled Id1-PCAO were performed in both the standard growth media (DME, RPMI 1640 or EGM-2) or in OptiMEM I (supplemented with 2% FBS) to control for media effects."}, "Id1": {"system": "Id1", "experiment": "Down-regulation of Id1 in tumor endothelium of MMTV-HER2/neu (YD) breast carcinoma, IHC", "type": "in vivo, mouse", "procedure": "Homing studies were also performed in animals bearing spontaneous tumors in MMTV-HER2/neu (YD) and PTEN+/− backgrounds. […] To test if the PCAOs down-regulate Id1 protein levels in vivo, tumor bearing transgenic MMTV-HER2/neu (YD) Id1+/− mice were injected intravenously with Id1-PCAOs. Since repeated application of the drug was necessary to yield significant down-regulation in vitro, the animals were treated with […] of Id1-PCAO or Id1-AO for three consecutive days. Over 80% of tumor vessels in animals treated with Id1-PCAO were completely negative for Id1 expression by IHC.\nYD neu transgenic animals bearing breast carcinoma were treated for 3 subsequent days with 25 nmol of either Id1-ASO or F3-Id1-ASO conjugate in PBS by i.v. injection. 24 h after the last injection animals were sacrificed, the tumor removed, fixed in paraformaldehyde and embedded in parafine. IHC staining was performed for Id1 (antibody C-20, SantaCruz Biotechnology, Santa Cruz, Calif.) on sections."}, "HUVEC": {"system": "HUVEC", "experiment": "Wound healing (scratch) assay", "type": "cell-based, human", "settings": "200 nM, 72 h treatment, 22 h after scratch", "procedure": "HUVEC (4th passage) were seeded 100,000 cells into the wells of a fibronectin coated two-well chamber slides (BD Bioscience). Medium was exchanged after 18 h with standard medium containing either F3-ASO conjugates or ASO at a concentration of 200 nM. The treatment was repeated every 24 h for two more days. 72 h after starting the treatment a scratch was applied with a micropipette-tip. Media was removed the cell-layer once washed with PBS and media containing the F3-conjugate or the control ASO was added. The chamber slides were incubated at 37° C. with 5% CO2 for 22 h. The cells were washed with PBS, fixed with 4% paraformaldehyde in PBS for 20 min at r.t., and washed twice with PBS. The slides were mounted and images were taken under a light microscope to access the grade of closure of the applied scratch.\nHUVEC were plated in fibronectin coated two-well chamber slides (BD Bioscience) at 2.5×10^4 cells/well. Growth media was supplemented with 200 nM Id1-PCAO (or Id1-AO) and renewed every 24 h. 72 h after plating a scratch was applied using a 20 μl pipette tip. Chambers were washed with media and supplemented media was added. 18 h after the scratch was applied, cells were fixed and imaged."}}, "note": "{C6NH2} = C6-amino linker; d = 2'-deoxy (DNA); m = 2'-O-methyl"}
{"substance": "GCACCagctccttgaggcGUGAG (antisense GCACCAGCTCCTTGAGGCGUGAG; sugars from the 5' end m5 d13 m5, 5' {C6NH2}, backbone and methylation of C not given here; DNA gap phosphorothioate linked, F3 peptide conjugate form, further chemistry not fully specified) [Id1-AO, ID No. 2]", "values": [{"measurement": "uptake / internalization into endothelial cells", "setting": "[1]", "result": "no internalization was observed"}, {"measurement": "down-regulation of Id1 in tumor vessels", "setting": "Id1; MMTV-HER2/neu (YD) Id1+/− mice, 15 nmol/d i.v., three consecutive days", "result": "no detectable down-regulation of Id1"}, {"measurement": "Id1 expression in tumor endothelium, IHC", "setting": "Id1; YD neu transgenic animals, 25 nmol i.v., 3 subsequent days, 24 h after last injection", "result": "no effect"}, {"measurement": "closure of the applied scratch", "setting": "HUVEC", "result": "closed completely"}]}
